Here are results for six molecules from patent publication US7414070B2, “Indol-7-YL sulfonamide derivatives, their preparation and their use in pharmaceutical compositions” (Laboratorios del Dr. ESTEVE S.A., priority 2003, dated 2008).

Structures can show the parent of a compound that is named as a salt.

In general, melting point refers to the temperature, or range, at which the solid turns liquid. `O=S(=O)(Nc1cccc2ccn(CCN3CCCC3)c12)c1c(Cl)nc2sccn12` (as salt: TFA) [Example 7, 6-chloro-N-(1-(2-(pyrrolidin-1-yl)ethyl)-1H-indol-7-yl)imidazo[2,1-b]thiazole-5-sulfonamide] displayed a melting point of 92 to 95 °C. On to `Cc1c(S(=O)(=O)Nc2cccc3ccn(CCN(C)C)c23)sc2ccc(Cl)cc12` [Example 2, N-[1-(2-dimethylaminoethyl)-1H-indole-7-yl]-5-chloro-3-methyl-benzo[b]thiophene-2-sulfonamide], for which the melting point was 57 to 65 °C.

For the molecule `CN(C)CCn1ccc2cccc(NS(=O)(=O)c3ccc(-c4ccccc4)cc3)c21` [Example 3, N-[1-(2-dimethylaminoethyl)-1H-indole-7-yl]-4 phenylbenzenesulfonamide], the melting point is 137 to 140 °C. `CN(C)CCn1ccc2cccc(NS(=O)(=O)c3c(Cl)nc4sccn34)c21` [Example 4, N-[1-(2-dimethylaminoethyl)-1H-indole-7-yl]-6-chloroimidazo[2,1-b]thiazole-5-sulfonamide] showed a melting point of 73 to 76 °C.

`O=S(=O)(Nc1cccc2ccn(CCN3CCCC3)c12)c1cccc2ccccc12` [Example 6, N-(1-(2-(pyrrolidin-1-yl)ethyl)-1H-indol-7-yl)naphthalene-1-sulfonamide] had a melting point of 196 to 199 °C.

Take `O=S(=O)(CCc1cccc2ccccc12)Nc1cccc2ccn(CCN3CCCC3)c12` [Example 8, 2-(naphth-1-yl)-N-(1-(2-(pyrrolidin-1-yl)ethyl)-1H-indol-7-yl)ethansulfonamide]: the melting point fell in the range of 46 to 49 °C.
